PubChem BioAssay AID248 (DTP/NCI, 2004)
Several values for one entry are separate records, joined by “and”; a condition that tells them apart may be missing. Equal values may be shown once. Inconclusive results and toxic doses are left out. Rule as the data show it: active = T/C of 150% or more; inactive = T/C below 125%.

System: L1210 leukemia ip in BDF1 mice, survival T/C
Assay: NCI In Vivo Anticancer Drug Screen. Data for tumor model L1210 Leukemia (intraperitoneal) in B6D2F1 (BDF1) mice
Details: endpoint: mean survival time, higher = longer survival
In short: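 Mice bearing the transplanted tumor received compound or vehicle. Survival of the treated group was divided by that of the vehicle-treated control group to give the ratio.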

[1] = dose: 100.0 mg/kg/injection, schedule: Q01DX009 (ip), vehicle: saline with Tween-80
[2] = dose: 100.0 mg/kg/injection, schedule: Q04DX003 (ip), vehicle: saline with Tween-80
[3] = dose: 200.0 mg/kg/injection, schedule: Q01DX009 (ip), vehicle: saline with Tween-80
[4] = dose: 200.0 mg/kg/injection, schedule: Q04DX003 (ip), vehicle: saline with Tween-80
[5] = dose: 400.0 mg/kg/injection, schedule: Q01DX009 (ip), vehicle: saline with Tween-80
[6] = dose: 50.0 mg/kg/injection, schedule: Q01DX009 (ip), vehicle: Klucel (hydroxypropylcellulose) (HPC)
[7] = dose: 100.0 mg/kg/injection, schedule: Q01DX009 (ip), vehicle: Klucel (hydroxypropylcellulose) (HPC)
[8] = dose: 100.0 mg/kg/injection, schedule: Q04DX003 (ip), vehicle: Klucel (hydroxypropylcellulose) (HPC)
[9] = dose: 200.0 mg/kg/injection, schedule: Q04DX003 (ip), vehicle: Klucel (hydroxypropylcellulose) (HPC)
[10] = dose: 100.0 mg/kg/injection, schedule: Q01DX009 (ip), vehicle: saline
[11] = dose: 200.0 mg/kg/injection, schedule: Q01DX009 (ip), vehicle: saline
[12] = dose: 100.0 mg/kg/injection, schedule: Q01DX001 (ip), vehicle: carboxymethylcellulose (CMC)
[13] = dose: 200.0 mg/kg/injection, schedule: Q01DX009 (ip), vehicle: Klucel (hydroxypropylcellulose) (HPC)
[14] = dose: 400.0 mg/kg/injection, schedule: Q01DX009 (ip), vehicle: Klucel (hydroxypropylcellulose) (HPC)
[15] = dose: 400.0 mg/kg/injection, schedule: Q04DX003 (ip), vehicle: Klucel (hydroxypropylcellulose) (HPC)
[16] = dose: 100.0 mg/kg/injection, schedule: Q01DX001 (ip), vehicle: saline
[17] = dose: 200.0 mg/kg/injection, schedule: Q01DX001 (ip), vehicle: saline
[18] = dose: 400.0 mg/kg/injection, schedule: Q01DX001 (ip), vehicle: saline

Measured: T/C

O=C(Nc1ccc([N+](=O)[O-])cc1Cl)OCCCl
inactive: dose: 100.0 mg/kg/injection, schedule: Q01DX001 (ip), vehicle: saline with Tween-80 94 % of control | [1] 98 % of control | dose: 100.0 mg/kg/injection, schedule: Q04DX002 (ip), vehicle: saline with Tween-80 97 % of control | [2] 96 % of control | dose: 200.0 mg/kg/injection, schedule: Q01DX001 (ip), vehicle: saline with Tween-80 98 % of control | [3] 87 % of control and 89 % of control | dose: 200.0 mg/kg/injection, schedule: Q04DX002 (ip), vehicle: saline with Tween-80 97 % of control | [4] 86 % of control | dose: 400.0 mg/kg/injection, schedule: Q01DX001 (ip), vehicle: saline with Tween-80 87 % of control | [5] 91 % of control | dose: 400.0 mg/kg/injection, schedule: Q04DX002 (ip), vehicle: saline with Tween-80 94 % of control

NC(=O)C(N)CO (configuration not stated)
inactive: dose: 100.0 mg/kg/injection, schedule: Q04DX002 (ip), vehicle: saline 96 % of control | dose: 200.0 mg/kg/injection, schedule: Q04DX002 (ip), vehicle: saline 104 % of control | dose: 400.0 mg/kg/injection, schedule: Q04DX002 (ip), vehicle: saline 111 % of control

Cc1ccc(S(=O)(=O)[O][Pb]([CH3])([CH3])[CH3])cc1
inactive: dose: 3.12 mg/kg/injection, schedule: Q01DX009 (ip), vehicle: saline 104 % of control | dose: 3.12 mg/kg/injection, schedule: Q04DX002 (ip), vehicle: saline 108 % of control | dose: 6.25 mg/kg/injection, schedule: Q01DX009 (ip), vehicle: saline 86 % of control | dose: 6.25 mg/kg/injection, schedule: Q04DX002 (ip), vehicle: saline 108 % of control | dose: 12.5 mg/kg/injection, schedule: Q04DX002 (ip), vehicle: saline 101 % of control

CC(=O)OC1C(=O)C(O)C(C)OC1O[C@@H]1C[C@@]2(C)[C@@H]3CC=C4[C@@H](C[C@H](O)C(=O)C4(C)C)[C@]3(C)C(=O)C[C@]2(C)[C@H]1[C@@](C)(O)C(=O)/C=C/C(C)(C)O (some centres not stated)
inactive: dose: 0.33 mg/kg/injection, schedule: Q01DX009 (ip), vehicle: saline 113 % of control | dose: 0.6 mg/kg/injection, schedule: Q01DX009 (ip), vehicle: saline 106 % of control | dose: 0.67 mg/kg/injection, schedule: Q01DX009 (ip), vehicle: saline 112 % of control | dose: 1.0 mg/kg/injection, schedule: Q01DX009 (ip), vehicle: saline 108 % of control | dose: 1.25 mg/kg/injection, schedule: Q01DX009 (ip), vehicle: saline 120 % of control | dose: 1.5 mg/kg/injection, schedule: Q01DX009 (ip), vehicle: saline 101 % of control | dose: 2.5 mg/kg/injection, schedule: Q01DX009 (ip), vehicle: saline 97 % of control

O=S(=O)(O)c1ccc(-c2ccccc2)cc1
inactive: [6] 106 % of control | [7] 94 % of control | [8] 89 % of control | [9] 94 % of control

CC1C(=O)OC2CC[N+]3(C(C)C)CC=C(COC(=O)C(C)(O)C1(C)O)C23 (configuration not stated)
inactive: dose: 50.0 mg/kg/injection, schedule: Q01DX009 (ip), vehicle: saline 100 % of control | [10] 106 % of control | [11] 106 % of control

CCOC(=O)C(N)CSCc1ccccc1 (configuration not stated)
inactive: [1] 97 % of control | [3] 92 % of control | [5] 97 % of control

CCOc1cc(C=Nc2cc(Br)c(O)c(Br)c2)ccc1N(CCCl)CCCl
inactive: dose: 13.3 mg/kg/injection, schedule: Q01DX009 (ip), vehicle: carboxymethylcellulose (CMC) 108 % of control | dose: 20.0 mg/kg/injection, schedule: Q01DX009 (ip), vehicle: carboxymethylcellulose (CMC) 100 % of control | dose: 30.0 mg/kg/injection, schedule: Q01DX009 (ip), vehicle: carboxymethylcellulose (CMC) 97 % of control | dose: 44.0 mg/kg/injection, schedule: Q01DX001 (ip), vehicle: carboxymethylcellulose (CMC) 123 % of control | [12] 123 % of control | dose: 150.0 mg/kg/injection, schedule: Q01DX001 (ip), vehicle: carboxymethylcellulose (CMC) 122 % of control

CC1=CCCC(C)(C)C1/C=C/C(=O)O (configuration not stated)
inactive: [7] 105 % of control | [13] 97 % of control | [14] 101 % of control

CCCCCCC(=O)/C=C/c1cccc(Cl)c1
inactive: [1] 88 % of control | [3] 88 % of control | [5] 95 % of control

C/C(=C\c1ccc2c(c1)OCO2)[N+](=O)[O-]
inactive: dose: 25.0 mg/kg/injection, schedule: Q01DX009 (ip), vehicle: Klucel (hydroxypropylcellulose) (HPC) 97 % of control | [6] 89 % of control | dose: 50.0 mg/kg/injection, schedule: Q01DX009 (ip), vehicle: saline with Tween-80 108 % of control | dose: 50.0 mg/kg/injection, schedule: Q04DX003 (ip), vehicle: Klucel (hydroxypropylcellulose) (HPC) 94 % of control | [7] 98 % of control and 87 % of control | [1] 87 % of control | [8] 103 % of control | [9] 100 % of control | [15] 97 % of control

CC12CC3(C)CC(Cl)(C1)CC(Cl)(C2)C3
inactive: dose: 100.0 mg/kg/injection, schedule: Q04DX002 (ip), vehicle: Klucel (hydroxypropylcellulose) (HPC) 90 % of control | dose: 200.0 mg/kg/injection, schedule: Q04DX002 (ip), vehicle: Klucel (hydroxypropylcellulose) (HPC) 102 % of control | dose: 400.0 mg/kg/injection, schedule: Q04DX002 (ip), vehicle: Klucel (hydroxypropylcellulose) (HPC) 119 % of control

O=C(CCCC(=O)N/N=C/c1ccccc1Cl)N/N=C\c1ccccc1Cl
inactive: dose: 50.0 mg/kg/injection, schedule: Q01DX001 (ip), vehicle: saline 103 % of control | [16] 100 % of control | [17] 110 % of control | [18] 110 % of control

CN=C(C)c1ccc(N(C)C)cc1
inactive: [8] 101 % of control | [9] 92 % of control | [15] 97 % of control

CC(C)(C)C(=O)CC(=O)C(C)(C)C.CC(C)(C)C(=O)CC(=O)C(C)(C)C.CC(C)(C)C(=O)CC(=O)C(C)(C)C.CC(C)(C)C(=O)CC(=O)C(C)(C)C.[Th]
inactive: [2] 96 % of control | [4] 98 % of control | dose: 400.0 mg/kg/injection, schedule: Q04DX003 (ip), vehicle: saline with Tween-80 90 % of control

CC(=O)Nc1cccc([As](=O)(c2cccc(NC(C)=O)c2)c2cccc(NC(C)=O)c2)c1
inactive: dose: 55.0 mg/kg/injection, schedule: Q01DX Z (ip), vehicle: methylcellulose (MC) 98 % of control | dose: 125.0 mg/kg/injection, schedule: Q01DX Z (ip), vehicle: methylcellulose (MC) 98 % of control

Cc1cc(O)cc(=O)o1
inactive: [7] 97 % of control and 89 % of control | [8] 101 % of control and 86 % of control | [13] 95 % of control and 100 % of control | [9] 101 % of control and 103 % of control | [14] 94 % of control and 100 % of control | [15] 92 % of control and 102 % of control

CCC1(CC)c2ccccc2C(CC)(CC)[N+]1(C)C
inactive: [12] 102 % of control | dose: 200.0 mg/kg/injection, schedule: Q01DX001 (ip), vehicle: carboxymethylcellulose (CMC) 98 % of control

Cc1ccc(NC(=O)NC2CCCCC2)cc1
inactive: [1] 94 % of control | [3] 97 % of control | [5] 92 % of control

CC(C)C(=O)C(C)(C)C
inactive: [16] 102 % of control | [17] 98 % of control | [18] 107 % of control

O=C(O)c1cccc2c1C(=O)c1ccccc1-2
inactive: dose: 100.0 mg/kg/injection, schedule: Q01DX001 (ip), vehicle: Klucel (hydroxypropylcellulose) (HPC) 93 % of control | dose: 200.0 mg/kg/injection, schedule: Q01DX001 (ip), vehicle: Klucel (hydroxypropylcellulose) (HPC) 106 % of control | dose: 400.0 mg/kg/injection, schedule: Q01DX001 (ip), vehicle: Klucel (hydroxypropylcellulose) (HPC) 101 % of control

CC(N)C(=O)Nc1ccc(C(=O)O)c(O)c1 (configuration not stated)
inactive: [10] 109 % of control | [11] 102 % of control | dose: 400.0 mg/kg/injection, schedule: Q01DX009 (ip), vehicle: saline 106 % of control
